# Experimental data published in US20260250290A1 (BRISTOL-MYERS SQUIBB COMPANY, priority 2023, published 2026).
# Counter-ions that a name gives are not always drawn.
# Molecular target: T1, full length SGK1 (Homo sapiens, UniProt O00141)
# T1 construct: 125 μM full length SGK1 (Life Technologies Part #PR7358A); purchased Life Technologies PR7358A
# T1 sequence (O00141 1-431): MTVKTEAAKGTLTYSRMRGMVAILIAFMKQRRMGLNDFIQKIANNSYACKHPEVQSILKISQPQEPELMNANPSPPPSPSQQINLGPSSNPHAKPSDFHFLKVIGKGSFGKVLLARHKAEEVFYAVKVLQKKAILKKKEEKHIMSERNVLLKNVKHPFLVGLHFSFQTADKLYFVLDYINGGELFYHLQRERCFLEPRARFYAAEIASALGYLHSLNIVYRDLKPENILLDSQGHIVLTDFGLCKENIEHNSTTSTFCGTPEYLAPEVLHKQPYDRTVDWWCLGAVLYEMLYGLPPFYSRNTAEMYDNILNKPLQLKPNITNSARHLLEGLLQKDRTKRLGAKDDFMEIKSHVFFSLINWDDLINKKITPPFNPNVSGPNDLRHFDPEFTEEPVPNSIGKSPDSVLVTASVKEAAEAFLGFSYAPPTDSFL
# Test: SGK1 inhibition Assay A (Caliper LabChip electrophoretic separation of fluorescent peptide substrate and phosphorylated product)
# Assay type: biochemical
# Conditions: Assay A; 20 μM ATP, 40 min incubation; read-out: SGK1 IC50
row,SMILES,IC50 [nM]
1,CS(=O)(=O)c1ccc(-c2cc(N3CCC[C@@H](NC(=O)c4ccn5ccnc5c4)C3)c3c(N)ncnn23)cc1 [Example 54],596
2,"CC(=O)N1CC=C(c2cc(N3CCC[C@@H](NC(=O)c4sc(Cl)cc4OCCN4CCC(C)(O)CC4)C3)c3c(N)ncnn23)C1 [Example 299, (R)-N-(1-(7-(1-acetyl-2,5-dihydro-1H-pyrrol-3-yl)-4-aminopyrrolo[2,1-f][1,2,4]triazin-5-yl)piperidin-3-yl)-5-chloro-3-(2-(4-hydroxy-4-methylpiperidin-1-yl)ethoxy)thiophene-2-carboxamide]",7
3,"CS(=O)(=O)c1ccc(-c2cc(N3CCC[C@@H](NC(=O)c4cnc[nH]4)C3)c3c(N)ncnn23)cc1 [Example 37, (R)-N-(1-(4-amino-7-(4-(methylsulfonyl)phenyl)pyrrolo[2,1-f][1,2,4]triazin-5-yl)piperidin-3-yl)-1H-imidazole-5-carboxamide, TFA]",136
4,"COC(=O)N1CC=C(c2cc(N3CCC[C@@H](NC(=O)c4sc(Cl)cc4OCCN(C)C)C3)c3c(N)ncnn23)C1 [Example 173, methyl (R)-3-(4-amino-5-(3-(5-chloro-3-(2-(dimethylamino)ethoxy)thiophene-2-carboxamido)piperidin-1-yl)pyrrolo[2,1-f][1,2,4]triazin-7-yl)-2,5-dihydro-1H-pyrrole-1-carboxylate, 2 TFA]",4
5,"NC(=O)c1ccc(-c2cc(N3CCC[C@@H](NC(=O)c4sc(C5CC5)cc4OC4CCNCC4)C3)c3c(N)ncnn23)cc1F [Example 380, (R)-N-(1-(4-amino-7-(4-carbamoyl-3-fluorophenyl)pyrrolo[2,1-f][1,2,4]triazin-5-yl)piperidin-3-yl)-5-cyclopropyl-3-(piperidin-4-yloxy)thiophene-2-carboxamide]",1
6,"COC(=O)N1CC=C(c2cc(N3CCC[C@@H](NC(=O)c4sc(C(F)F)cc4N4CC5(COC5)C4)C3)c3c(N)ncnn23)C1 [Example 317, Methyl (R)-3-(4-amino-5-(3-(5-(difluoromethyl)-3-(2-oxa-6-azaspiro[3.3]heptan-6-yl)thiophene-2-carboxamido)piperidin-1-yl)pyrrolo[2,1-f][1,2,4]triazin-7-yl)-2,5-dihydro-1H-pyrrole-1-carboxylate]",34
7,"CN1CCN(CCOc2cc(C(F)F)sc2C(=O)N[C@@H]2CCCN(c3cc(-c4ccnc(C(F)F)c4)n4ncnc(N)c34)C2)CC1 [Example 335, (R)—N-(1-(4-amino-7-(2-(difluoromethyl)pyridin-4-yl)pyrrolo[2,1-f][1,2,4]triazin-5-yl)piperidin-3-yl)-5-(difluoromethyl)-3-(2-(4-methylpiperazin-1-yl)ethoxy)thiophene-2-carboxamide]",4
8,"Cc1csc(C(=O)N[C@@H]2CCCN(c3cc(-c4ccc(S(C)(=O)=O)cc4)n4ncnc(N)c34)C2)c1 [Example 97, (R)-N-(1-(4-amino-7-(4-(methylsulfonyl)phenyl)pyrrolo[2,1-f][1,2,4]triazin-5-yl)piperidin-3-yl)-4-methylthiophene-2-carboxamide, TFA]",3
9,"Nc1ncnn2c(-c3cccc(CO)c3)cc(N3CCC[C@@H](NC(=O)c4ccc(Cl)s4)C3)c12 [Example 214, (R)-N-(1-(4-amino-7-(3-(hydroxymethyl)phenyl)pyrrolo[2,1-f][1,2,4]triazin-5-yl)piperidin-3-yl)-5-chlorothiophene-2-carboxamide]",11
10,"CC(=O)N1CC=C(c2cc(N3CCC[C@@H](NC(=O)c4sc(C(F)F)cc4N4CC5(COC5)C4)C3)c3c(N)ncnn23)C1 [Example 315, (R)-N-(1-(7-(1-acetyl-2,5-dihydro-1H-pyrrol-3-yl)-4-aminopyrrolo[2,1-f][1,2,4]triazin-5-yl)piperidin-3-yl)-5-(difluoromethyl)-3-(2-oxa-6-azaspiro[3.3]heptan-6-yl)thiophene-2-carboxamide]",65
11,"COc1ccccc1C(=O)N[C@@H]1CCCN(c2cc(-c3ccc(S(C)(=O)=O)cc3)n3ncnc(N)c23)C1 [Example 49, (R)-N-(1-(4-amino-7-(4-(methylsulfonyl)phenyl)pyrrolo[2,1-f][1,2,4]triazin-5-yl)piperidin-3-yl)-2-methoxybenzamide]",43

# Second part, the compound after the results:
row,IC50 [nM],SMILES
1,139,"Nc1ncnn2c(-c3ccc(OC(F)F)nc3)cc(N3CCC[C@@H](NC(=O)c4ccc(C(F)F)s4)C3)c12 [Example 528, (R)-N-(1-(4-amino-7-(6-(difluoromethoxy)pyridin-3-yl)pyrrolo[2,1-f][1,2,4]triazin-5-yl)piperidin-3-yl)-5-(difluoromethyl)thiophene-2-carboxamide]"
2,148,"Nc1ncnn2c(-c3ccc(=O)n(C(F)F)c3)cc(N3CCC[C@@H](NC(=O)c4ccc(C(F)F)s4)C3)c12 [Example 527, (R)-N-(1-(4-amino-7-(1-(difluoromethyl)-6-oxo-1,6-dihydropyridin-3-yl)pyrrolo[2,1-f][1,2,4]triazin-5-yl)piperidin-3-yl)-5-(difluoromethyl)thiophene-2-carboxamide]"
3,198,"CC(=O)N1CC=C(c2cc(N3CCC[C@@H](NC(=O)c4ccc5ncsc5c4)C3)c3c(N)ncnn23)C1 [Example 452, (R)-N-(1-(7-(1-acetyl-2,5-dihydro-1H-pyrrol-3-yl)-4-aminopyrrolo[2,1-f][1,2,4]triazin-5-yl)piperidin-3-yl)benzo[d]thiazole-6-carboxamide]"
4,17,Cc1cc(-c2cc(N3CCC[C@@H](NC(=O)c4ccc(C(F)F)s4)C3)c3c(N)ncnn23)cnc1C#N [Example 522]
5,162,"CC(=O)N1CC=C(c2cc(N3CCC[C@@H](NC(=O)c4sc(C(F)F)cc4C4CCNCC4)C3)c3c(N)ncnn23)C1 [Example 393E, (R)—N-(1-(7-(1-acetyl-2,5-dihydro-1H-pyrrol-3-yl)-4-aminopyrrolo[2,1-f][1,2,4]triazin-5-yl)piperidin-3-yl)-5-(difluoromethyl)-3-(piperidin-4-yl)thiophene-2-carboxamide]"
6,9,"CC(=O)N1CC=C(c2cc(N3CCC[C@@H](NC(=O)c4cccc(N5CC(=O)NC(C)C5)n4)C3)c3c(N)ncnn23)C1 (stereo partly drawn) [Example 775, N-((R)-1-(7-(1-acetyl-2,5-dihydro-1H-pyrrol-3-yl)-4-aminopyrrolo[2,1-f][1,2,4]triazin-5-yl)piperidin-3-yl)-6-(3-methyl-5-oxopiperazin-1-yl)picolinamide, 2 TFA]"
7,82,"CC(C)Cn1cc(-c2cc(N3CCC[C@@H](NC(=O)c4cc5ccccc5[nH]4)C3)c3c(N)ncnn23)ccc1=O [Example 507, (R)-N-(1-(4-amino-7-(1-isobutyl-6-ox0-1,6-dihydropyridin-3-yl)pyrrolo[2,1-f][1,2,4]triazin-5-yl)piperidin-3-yl)-1H-indole-2-carboxamide]"
8,188,"COC(=O)N1CC=C(c2cc(N3CCC[C@@H](NC(=O)c4cc5ccc(C(F)(F)F)cc5[nH]4)C3)c3c(N)ncnn23)C1 [Example 500, methyl (R)-3-(4-amino-5-(3-(6-(trifluoromethyl)-1H-indole-2-carboxamido)piperidin-1-yl)pyrrolo[2,1-f][1,2,4]triazin-7-yl)-2,5-dihydro-1H-pyrrole-1-carboxylate]"
9,29,"CC(=O)N1CCC(Oc2cc(C(F)F)sc2C(=O)N[C@@H]2CCCN(c3cc(-c4ccc(C#N)nc4)n4ncnc(N)c34)C2)CC1 [Example 416, (R)-3-((1-acetylpiperidin-4-yl)oxy)-N-(1-(4-amino-7-(6-cyanopyridin-3-yl)pyrrolo[2,1-f][1,2,4]triazin-5-yl)piperidin-3-yl)-5-(difluoromethyl)thiophene-2-carboxamide]"
10,67,"CC(=O)N1CC=C(c2cc(N3CCC[C@@H](NC(=O)c4ccc(-n5ccnc5)cc4)C3)c3c(N)ncnn23)C1 [Example 460, (R)-N-(1-(7-(1-acetyl-2,5-dihydro-1H-pyrrol-3-yl)-4-aminopyrrolo[2,1-f][1,2,4]triazin-5-yl)piperidin-3-yl)-4-(1H-imidazol-1-yl)benzamide]"
11,9,"CC(=O)N1CC=C(c2cc(N3CCC[C@@H](NC(=O)c4sc(Cl)cc4OC4CC5CC4CN5)C3)c3c(N)ncnn23)C1 (stereo partly drawn) [Example 606, 3-((2-azabicyclo[2.2.1]heptan-5-yl)oxy)-N-((R)-1-(7-(1-acetyl-2,5-dihydro-1H-pyrrol-3-y1)-4-aminopyrrolo[2,1-f][1,2,4]triazin-5~yl)piperidin-3-y1)-5-chlorothiophene-2-carboxamide]"
12,13,"CC(=O)N1CC=C(c2cc(N3CCC[C@@H](NC(=O)c4cccc(C5CC5)n4)C3)c3c(N)ncnn23)C1 [Example 710, (R)-N-(1-(7-(1-acetyl-2,5-dihydro-1H-pyrrol-3-yl)-4-aminopyrrolo[2,1-f][1,2,4]triazin-5-yl)piperidin-3-yl)-6-cyclopropylpicolinamide,]"
13,16,"Nc1ncnn2c(-c3ccnc(C(F)F)c3)cc(N3CCC[C@@H](NC(=O)c4sc(Cl)cc4O)C3)c12 [Example 481, (R)-N-(1-(4-amino-7-(2-(difluoromethyl)pyridin-4-yl)pyrrolo[2,1-f][1,2,4]triazin-5-yl)piperidin-3-yl)-5-chloro-3-hydroxythiophene-2-carboxamide]"
14,6,"CC(=O)N1CC=C(c2cc(N3CCC[C@@H](NC(=O)c4ccc(-c5cncc(C#N)c5)s4)C3)c3c(N)ncnn23)C1 [Example 551, (R)-N-(1-(7-(1-acetyl-2,5-dihydro-1H-pyrrol-3-yl)-4-aminopyrrolo[2,1-f][1,2,4]triazin-5-yl)piperidin-3-yl)-5-(5-cyanopyridin-3-yl)thiophene-2-carboxamide]"
